Results on 15 compounds are retold here after US10821115B2, “Compounds that inhibit Mcl-1 protein” (priority 2017, dated 2020).

SMILES strings stand for the structures. Where two headings read alike, the source gives them in different places.

Experiment [1] deals with recombinant human Mcl-1 (residues 171-327) / Bim interaction (Homo sapiens (Human), UniProt Q07820). The experiment in a line: biochemical. It counts as binding. The following applies: read-out: Mcl-1 HTRF IC50. A general note: In TR-FRET formats the signal depends on donor and acceptor labels being close together.
Sequence of recombinant human Mcl-1 (residues 171-327) / Bim interaction (Q07820 171-327): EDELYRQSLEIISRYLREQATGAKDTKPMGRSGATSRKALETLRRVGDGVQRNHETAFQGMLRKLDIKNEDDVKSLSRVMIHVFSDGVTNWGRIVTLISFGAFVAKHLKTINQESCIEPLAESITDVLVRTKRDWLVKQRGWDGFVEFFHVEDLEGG
In experiment [2] the test system is human multiple myeloma cell line, OPM-2. The experiment in a line: Cell viability assay (OPM-2 10 FBS), CellTiter-Glo. It counts as cell-based. Put shortly:
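3000 cells/well, RPMI 1640 + 10% FBS; serial compound dilutions, 16 h, 37 °C/5% CO2.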
In general terms: In ATP-based viability assays light output follows the ATP content of the culture.

The mark [3] stands for this setting: TR-FRET, Mcl-1(171-327) / biotin-Bim (51-76).
Setting [4] is: read-out: OPM-2 10% FBS IC50 IP, OPM-2 cells, 10% FBS, 16 h, CellTiter-Glo.
[5] abbreviates: Homo sapiens, OPM-2, 16 h, read-out: OPM-2 10% FBS IC50 IP, OPM-2 cells, 10% FBS, 16 h, CellTiter-Glo.
[6] abbreviates: 0.1 nM Mcl-1(171-327), 0.05 nM biotin-Bim (51-76).
Setting [7] is: Homo sapiens, OPM-2, 16 h, read-out: OPM-2 10% FBS IC50 IP, OPM-2 cells, 10% FBS, 16 h incubation.

As to `CN[C@@H]1C[C@H](C)[C@@H](C)S(=O)(=O)NC(=O)c2ccc3c(c2)N(C[C@@H]2CC[C@H]2[C@@](C)(O)C1)C[C@@]1(CCCc2cc(Cl)ccc21)CO3` [Example 100065, (1S,3′R,6′R,7′S,9′R,11′S,12′R)-6-chloro-7′-hydroxy-7′,11′,12′-trimethyl-9′-(methylamino)-3,4-dihydro-2H,15′H-spiro[naphthalene-1,22′-[20]oxa[13]thia[1,14]diazatetracyclo [14.7.2.0~3,6~.0~19,24~]pentacosa[16,18,24]trien]-15′-one 13′,13′-dioxide], the IC50 in experiment [1] (setting [3]) was found to be 4.85 nM; in experiment [2] (setting [4]) it was 7390 nM.
Turning to `CO[C@@]1(Cc2cc(C)ccn2)/C=C/C[C@H](C)[C@@H](C)S(=O)(=O)NC(=O)c2ccc3c(c2)N(C[C@@H]2CC[C@H]21)C[C@@]1(CCCc2cc(Cl)ccc21)CO3` [Example 100560, (1S,3′R,6′R,7′S,8′E,11′S,12′R)-6-chloro-7′-methoxy-11′,12′-dimethyl-7′-((4-methyl-2-pyridinyl)methyl)-3,4-dihydro-2H,15′H-spiro[naphthalene-1,22′-[20]oxa[13]thia[1,14]diazatetracyclo [14.7.2.0~3,6~.0~19,24~]pentacosa[8,16,18,24]tetraen]-15′-one 13′,13′-dioxide], the IC50 in experiment [1] (setting [3]) was 0.041 nM; in experiment [2] (setting [5]) it was 2020 nM.
The like results for `C[C@@H]1[C@@H](C)C/C=C/[C@@](O)(C2SCCCS2)[C@@H]2CC[C@H]2CN2C[C@@]3(CCCc4cc(Cl)ccc43)COc3ccc(cc32)C(=O)NS1(=O)=O` [Example 100260, (1S,3′R,6′R,7′S,8′E,11′S,12′R)-6-chloro-7′-(1,3-dithian-2-yl)-7′-hydroxy-11′,12′-dimethyl-3,4-dihydro-2H,15′H-spiro[naphthalene-1,22′-[20]oxa[13]thia[1,14]diazatetracyclo [14.7.2.0~3,6~.0~19,24~]pentacosa[8,16,18,24]tetraen]-15′-one 13′,13′-dioxide] were, in that order, 0.408 nM and 94 nM.
On to `COCCN(C)C1=NO[C@@]2(CCC[C@H](C)[C@@H](C)S(=O)(=O)NC(=O)c3ccc4c(c3)N(C[C@@H]3CC[C@H]32)C[C@@]2(CCCc3cc(Cl)ccc32)CO4)C1` [Example 100155, (1S,3′R,6′R,7′S,11′S,12′R)-6-chloro-3″- ((2-methoxyethyl)(methyl)amino)-11′,12′-dimethyl-3,4-dihydro-2H,4″H,15′H-dispiro[naphthalene-1,22′-[20]oxa[13]thia[1,14]diazatetracyclo [14.7.2.0~3,6~.0~19,24~]pentacosa[16,18,24]triene-7′,5″-[1,2]oxazol]-15′-one 13′,13′-dioxide], for which the IC50 in experiment [1] (setting [3]) is 0.225 nM; in experiment [2] (setting [5]), 332 nM.
Turning to `C[C@@H]1[C@@H](C)C/C=C/[C@@](O)(c2ccncc2)[C@@H]2CC[C@H]2CN2C[C@@]3(CCCc4cc(Cl)ccc43)COc3ccc(cc32)C(=O)NS1(=O)=O` (single isomer, unassigned) [Example 100392], the IC50 in experiment [1] (setting [3]) was determined as 0.112 nM; in experiment [2] (setting [5]) it was 129 nM.
For the compound `CCO[C@@]1(CN2CCN(CC)CC2)/C=C/C[C@H](C)[C@@H](C)S(=O)(=O)NC(=O)c2ccc3c(c2)N(C[C@@H]2CC[C@H]21)C[C@@]1(CCCc2cc(Cl)ccc21)CO3` [Example 112, (1S,3′R,6′R,7′S,8′E,11′S,12′R)-6-chloro-7′-ethoxy-7′-((4-ethyl-1-piperazinyl)methyl)-11′,12′-dimethyl-3,4-dihydro-2H,15′H-spiro[naphthalene-1,22′-[20]oxa[13]thia[1,14]diazatetracyclo [14.7.2.0~3,6~.0~19,24~]pentacosa[8,16,18,24]tetraen]-15′-one 13′,13′-dioxide], the IC50 in experiment [1] (setting [6]) is 0.617 nM; in experiment [2] (setting [7]), 654 nM.
Regarding `CO[C@@]1(CN2CCOCC2)/C=C/C[C@H](C)[C@@H](C)S(=O)(=O)NC(=O)c2ccc3c(c2)N(C[C@@H]2CC[C@H]21)C[C@@]1(CCCc2cc(Cl)ccc21)CO3` [Example 52, (1S,3′R,6′R,7′S,8′E,11′S,12′R)-6-chloro-7′-methoxy-11′,12′-dimethyl-7′-(4-morpholinylmethyl)-3,4-dihydro-2H,15′H-spiro[naphthalene-1,22′-[20]oxa[13]thia[1,14]diazatetracyclo [14.7.2.0~3,6~.0~19,24~]pentacosa[8,16,18,24]tetraen]-15′-one 13′,13′-dioxide], the IC50 in experiment [1] (setting [6]) is 0.522 nM; in experiment [2] (setting [7]) it was 330 nM.
On to `CCO[C@]1(CN2CCN(C3COC3)CC2)/C=C/C[C@H](C)[C@@H](COC)S(=O)(=O)NC(=O)c2ccc3c(c2)N(C[C@@H]2CC[C@H]21)C[C@@]1(CCCc2cc(Cl)ccc21)CO3` [Example 175], for which the IC50 in experiment [1] (setting [6]) is 0.069 nM; in experiment [2] (setting [7]), 64 nM.
On to `CC#C[C@]1(O)CCC[C@H](C)[C@@H](C)S(=O)(=O)NC(=O)c2ccc3c(c2)N(C[C@@H]2CC[C@H]21)C[C@@]1(CCCc2cc(Cl)ccc21)CO3` [Example 100268, (1S,3′R,6′R,7′S,11′S,12′R)-6-chloro-7′-hydroxy-11′,12′-dimethyl-7′-(1-propyn-1-yl)-3,4-dihydro-2H,15′H-spiro[naphthalene-1,22′-[20]oxa[13]thia[1,14]diazatetracyclo [14.7.2.0~3,6~.0~19,24~]pentacosa[16,18,24]trien]-15′-one 13′,13′-dioxide], for which the IC50 in experiment [1] is 3.44 nM; in experiment [2] (setting [4]), 3810 nM.
With `COCCN(C)C1CN(C[C@@]2(OC)/C=C/C[C@H](C)[C@@H](C)S(=O)(=O)NC(=O)c3ccc4c(c3)N(C[C@@H]3CC[C@H]32)C[C@@]2(CCCc3cc(Cl)ccc32)CO4)C1` [Example 94, (1S,3′R,6′R,7′R,8′E,11′S,12′R)-6-chloro-7′-methoxy-7′-((3-((2-methoxyethyl)(methyl)amino)-1-azetidinyl)methyl)-11′,12′-dimethyl-3,4-dihydro-2H,15′H-spiro[naphthalene-1,22′-[20]oxa[13]thia[1,14]diazatetracyclo [14.7.2.0~3,6~.0~19,24~]pentacosa[8,16,18,24]tetraen]-15′-one 13′,13′-dioxide], the IC50 in experiment [1] (setting [6]) worked out at 0.191 nM; in experiment [2] (setting [7]) it was 140 nM.
As for `CO[C@@]1(CCN2CCCC2)/C=C/C[C@H](C)[C@@H](C)S(=O)(=O)NC(=O)c2ccc3c(c2)N(C[C@@H]2CC[C@H]21)C[C@@]1(CCCc2cc(Cl)ccc21)CO3` [Example 100412, (1S,3′R,6′R,7′S,8′E,11′S,12′R)-6-chloro-7′-methoxy-11′,12′-dimethyl-7′-(2-(1-pyrrolidinyl)ethyl)-3,4-dihydro-2H,15′H-spiro[naphthalene-1,22′-[20]oxa[13]thia[1,14]diazatetracyclo [14.7.2.0~3,6~.0~19,24~]pentacosa[8,16,18,24]tetraen]-15′-one 13′,13′-dioxide], the IC50 in experiment [1] (setting [3]) was determined as 0.097 nM; in experiment [2] (setting [5]), 249 nM.
For the compound `C[C@@H]1[C@@H](C)CCC[C@](O)(CC(=S)N(C)C)[C@@H]2CC[C@H]2CN2C[C@@]3(CCCc4cc(Cl)ccc43)COc3ccc(cc32)C(=O)NS1(=O)=O` (single isomer, unassigned) [Example 100173], the IC50 was determined as 0.539 nM in experiment [1] (setting [3]) and 379 nM in experiment [2] (setting [4]).
On to `C[C@@H]1[C@@H](C)C/C=C/[C@@](CN2CCN3CCCC[C@@H]3C2)(OCC2CC2)[C@@H]2CC[C@H]2CN2C[C@@]3(CCCc4cc(Cl)ccc43)COc3ccc(cc32)C(=O)NS1(=O)=O` [Example 155, (1S,3′R,6′R,7′R,8′E,11′S,12′R)-6-chloro-7′-(cyclopropylmethoxy)-11′,12′-dimethyl-7′-((9aR)-octahydro-2H-pyrido[1,2-a]pyrazin-2-ylmethyl)-3,4-dihydro-2H,15′H-spiro[naphthalene-1,22′-[20]oxa[13]thia[1,14]diazatetracyclo [14.7.2.0~3,6~.0~19,24~]pentacosa[8,16,18,24]tetraen]-15′-one 13′,13′-dioxide], for which the IC50 stood at 0.228 nM in experiment [1] (setting [6]) and 378 nM in experiment [2] (setting [7]).
The like results for `CO[C@@]1(CN2CCN3CCCC[C@@H]3C2)/C=C/C[C@H](C)[C@@H](CC2CCC2)S(=O)(=O)NC(=O)c2ccc3c(c2)N(C[C@@H]2CC[C@H]21)C[C@@]1(CCCc2cc(Cl)ccc21)CO3` [Example 41, (1S,3′R,6′R,7′S,8′E,11′S,12′R)-6-chloro-12′-(cyclobutylmethyl)-7′-methoxy-11′-methyl-7′-((9aR)-octahydro-2H-pyrido[1,2-a]pyrazin-2-ylmethyl)-3,4-dihydro-2H,15′H-spiro[naphthalene-1,22′-[20]oxa[13]thia[1,14]diazatetracyclo [14.7.2.0~3,6~.0~19,24~]pentacosa[8,16,18,24]tetraen]-15′-one 13′,13′-dioxide] were, in that order, 0.642 nM and 810 nM.
With `C[C@@H]1[C@@H](C)CCC[C@](O)(CCN(C)C)[C@@H]2CC[C@H]2CN2C[C@@]3(CCCc4cc(Cl)ccc43)COc3ccc(cc32)C(=O)NS1(=O)=O` [Example 100088, (1S,3′R,6′R,7′S,11′S,12′R)-6-chloro-7′-(2-(dimethylamino)ethyl)-7′-hydroxy-11′,12′-dimethyl-3,4-dihydro-2H,15′H-spiro[naphthalene-1,22′-[20]oxa[13]thia[1,14]diazatetracyclo [14.7.2.0~3,6~.0~19,24~]pentacosa[16,18,24]trien]-15′-one 13′,13′-dioxide], the figures for the IC50 in experiment [1] (setting [3]) and in experiment [2] (setting [5]) were 2.12 nM and 1340 nM, respectively.

A word on the IC50: it is the concentration at which inhibition is half-maximal.
